According to US9353082B2, “Pharmaceutical compounds” (BIAL—PORTELA & CA, S.A., priority 2008, dated 2016):

Biological target: T1, FAAH (Rattus norvegicus, UniProt P97612)
T1 construct: Frozen brains (without cerebellum) from Wistar rats were used; from tissue; host or cells: Wistar rat brain (without cerebellum), washed membrane pellets
T1 sequence (P97612 1-579): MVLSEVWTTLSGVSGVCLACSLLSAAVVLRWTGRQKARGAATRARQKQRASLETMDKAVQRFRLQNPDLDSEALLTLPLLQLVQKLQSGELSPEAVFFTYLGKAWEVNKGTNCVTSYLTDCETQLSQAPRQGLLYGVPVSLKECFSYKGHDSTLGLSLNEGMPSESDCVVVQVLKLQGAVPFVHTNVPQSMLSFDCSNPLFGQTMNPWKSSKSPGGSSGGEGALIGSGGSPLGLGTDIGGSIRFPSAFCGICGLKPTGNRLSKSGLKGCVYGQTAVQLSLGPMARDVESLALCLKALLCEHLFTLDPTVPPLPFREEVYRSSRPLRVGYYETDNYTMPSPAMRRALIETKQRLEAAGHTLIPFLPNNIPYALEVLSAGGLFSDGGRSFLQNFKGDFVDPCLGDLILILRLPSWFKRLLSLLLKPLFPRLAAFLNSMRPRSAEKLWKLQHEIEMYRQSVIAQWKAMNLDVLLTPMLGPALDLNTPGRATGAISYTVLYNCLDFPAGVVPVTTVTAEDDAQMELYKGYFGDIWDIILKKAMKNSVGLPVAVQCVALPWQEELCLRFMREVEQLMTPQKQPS
Assay: In vitro FAAH activity in rat brain membranes, 3H-AEA substrate, % of control
Type: biochemical, Wistar rats
Details: low value = strong inhibitor; for In Vitro FAAH activity, 100 nM: 100 nM test compound; for In Vitro FAAH activity, 10 uM: 10 uM test compound; for In Vitro 100 nM (FAAH activity, % of control): rat brain membranes, compound at 100 nM
Method: 3. Biological Efficacy of Compounds of the Invention The in vitro test was performed according to the protocol described below. The controls for both in vitro and in vivo were the reaction mix minus the test compounds. Therefore, a low value in Table 1 below for the test compounds indicates a strong inhibitor.
The in vitro pharmaceutical FAAH activity was determined according to the following method:
Frozen brains (without cerebellum) from Wistar rats were used, and each brain was homogenized in 15 ml 1 mM MgCL2, […] HEPES pH 7.0 with Potter Elvejhem (8 strokes at 500 rpm). Homogenates were centrifuged for 20 min at 36000 g at 4° C. (Beckman, 70Ti rotor). Pellets were resuspended in 15 ml of the same buffer and centrifuged under the same conditions. Pellets were resuspended in 15 ml of the same buffer and incubated for 15 min at 37° C. after which they were centrifuged for 20 min at 36000 g at 4° C. Each pellet was then resuspended in 15 ml 3 mM MgCl2, 1 mM EDTA, 50 mM Tris pH 7.4 and protein determined with BioRad Protein Assay (BioRad) using a standard curve of BSA (50-250 μg/ml). The membrane suspensions were aliquoted and stored at −80° C.
The FAAH activity was determined using AEA (labelled with 3H in the ethanolamine part of the molecule) as substrate and measuring the 3H-ethanolamine formed. Reaction mix (total volume of 200 up contained: 2 μM AEA (2 μM AEA+5 nM 3H-AEA), 0.1% fatty acid free BSA, 5 μg protein, in 1 mM EDTA, 10 mM Tris pH 7.6 and 10 μM or 0.1 μM compounds. Stock solutions of the compounds to test (10 mM) were prepared in 100% DMSO and the DMSO concentration in the assay was 0.1%. After a 15 min preincubation period at 37° C., reaction was started by the addition of the substrate solution ([…]). Reaction was carried out for 10 min before termination by the addition of 400 μl activated charcoal suspension (8 g charcoal in 32 ml 0.5 M HCl in continuous agitation). After a 30 min incubation period at room temperature with agitation, charcoal was sedimented by centrifugation in microfuge (10 min at 13000 rpm). 200 μl of the supernatant were added to 800 μl Optiphase Supermix scintillation cocktail previously distributed in 24-well plates. Counts per minute (cpm) were determined in Microbeta TriLux scintillation counter (10 min counting or until s=2).
In each assay blanks (no protein, usually below 200 cpm) and controls (no compound) were present. The results are reported in Table 1 as % of control after blank subtraction.

Structure (SMILES)	In Vitro FAAH activity, 100 nM	In Vitro FAAH activity, 10 uM	In Vitro 100 nM (FAAH activity, % of control)
O=C(N1CCCCCCC1)n1nnc2ccccc21 [Compound 171, azocan-1-yl(1H-benzo[d][1,2,3]triazol-1-yl)methanone]	15.2 % of control	–	–
O=C(Nc1ccc(OCc2ccccc2)cc1)n1ccc(-c2ccccc2)n1 [Compound 11, N-(4-(benzyloxy)phenyl)-3-phenyl-1H-pyrazole-1-carboxamide]	–	82.6 % of control	–
CC1(C)COCN1C(=O)n1cnc(-c2ccc(Cl)cc2)c1Cl [Compound 280, (5-chloro-4-(4-chlorophenyl)-1H-imidazol-1-yl)(4,4-dimethyloxazolidin-3-yl)methanone]	–	–	111.8 % of control
O=C(N1CCC2(CC1)OCCO2)n1cnc(-c2ccc(Cl)cc2)n1 [Compound 204, (3-(4-chlorophenyl)-1H-1,2,4-triazol-1-yl)(1,4-dioxa-8-azaspiro[4.5]decan-8-yl)methanone]	15.8 % of control	–	–
CN(C(=O)n1cnc(-c2ccc(Cl)cc2)n1)c1ccccc1 [Compound 67, 3-(4-chlorophenyl)-N-methyl-N-phenyl-1H-1,2,4-triazole-1-carboxamide]	61 % of control	–	–
O=C(N1COC(c2ccccc2)C1)n1cnc(-c2ccc(F)c(F)c2)c1 (stereo not shown) [Compound 308, (4-(3,4-difluorophenyl)-1H-imidazol-1-yl)(5-phenyloxazolidin-3-yl)methanone]	–	–	2.5 % of control
CN(C(=O)n1cnc(-c2ccccc2)n1)C1CCCCC1 [Compound 283, N-cyclohexyl-N-methyl-3-phenyl-1H-1,2,4-triazole-1-carboxamide]	–	–	75.1 % of control
Cl.O=C(N1CCC(N2CCOCC2)CC1)n1nnc2ccccc21 [Compound 90, (1H-benzo[d][1,2,3]triazol-1-yl)(4-morpholinopiperidin-1-yl)methanone hydrochloride]	38.6 % of control	–	–
O=C(N1CCSC1)n1cnc(-c2ccc(F)c(F)c2)c1 [Compound 215, (4-(3,4-difluorophenyl)-1H-imidazol-1-yl)(thiazolidin-3-yl)methanone]	16.7 % of control	–	–
C[C@@H]1CN(C(=O)n2nnc3ccccc32)C[C@@H](C)O1 [Compound 193, (1H-benzo[d][1,2,3]triazol-1-yl)((2R,6R)-2,6-dimethylmorpholino)methanone]	110.2 % of control	–	–
O=C(OCCN(C(=O)n1cnc(-c2ccccc2)c1)C1=CCCC1)n1cnc(-c2ccccc2)c1 [Compound 234, 2-(N-cyclopentenyl-4-phenyl-1H-imidazole-1-carboxamido)ethyl 4-phenyl-1H-imidazole-1-carboxylate]	78.2 % of control	–	–
O=C(N1CCC(O)CC1)n1nnc2ccccc21 [Compound 159, (1H-benzo[d][1,2,3]triazol-1-yl)(4-hydroxypiperidin-1-yl)methanone]	4.8 % of control	–	–
CN(C(=O)n1nnc2ccc(-c3cccc(C(N)=O)c3)cc21)C1CCCCC1 [Compound 109, 6-(3-carbamoylphenyl)-N-cyclohexyl-N-methyl-1H-benzo[d][1,2,3]triazole-1-carboxamide]	0 % of control	–	–
CC1(C)OCCN1C(=O)n1cnc(-c2ccccc2)c1Cl [Compound 268, (5-chloro-4-phenyl-1H-imidazol-1-yl)(2,2-dimethyloxazolidin-3-yl)methanone]	104.1 % of control	–	–
COc1ccc(-c2cn(C(=O)N(C)c3ccc(F)cc3)cn2)cc1 [Compound 36, N-(4-fluorophenyl)-4-(4-methoxyphenyl)-N-methyl-1H-imidazole-1-carboxamide]	–	5 % of control	–
CC(=O)N1CCN(C(=O)n2nnc3ccccc32)CC1 [Compound 178, 1-(4-(1H-benzo[d][1,2,3]triazole-1-carbonyl)piperazin-1-yl)ethanone]	94.5 % of control	–	–
O=C(N1CCSC1)n1cnc(-c2ccc(Cl)cc2)n1 [Compound 214, (3-(4-chlorophenyl)-1H-1,2,4-triazol-1-yl)(thiazolidin-3-yl)methanone]	23.7 % of control	–	–
O=C(Nc1ccccc1)n1nnc2ccccc21 [Compound 60, N-phenyl-1H-benzo[d][1,2,3]triazole-1-carboxamide]	93.8 % of control	–	–
CN(C(=O)n1cncn1)c1ccccc1 [Compound 7, N-methyl-N-phenyl-1H-1,2,4-triazole-1-carboxamide]	17 % of control	0 % of control	–
O=C(N1CCCc2ccccc21)n1cnc(-c2ccc(F)cc2)c1 [Compound 44, (3,4-dihydroquinolin-1(2H)-yl)(4-(4-fluorophenyl)-1H-imidazol-1-yl)methanone]	97.8 % of control	–	–
Cl.O=C(N1CCC(N2CCCC2)CC1)n1nnc2ccccc21 [Compound 92, (1H-benzo[d][1,2,3]triazol-1-yl)(4-(pyrrolidin-1-yl)piperidin-1-yl)methanone hydrochloride]	96 % of control	–	–
CN(C(=O)n1ccnc1-c1ccccc1)c1ccccc1 [Compound 26, N-methyl-N,2-diphenyl-1H-imidazole-1-carboxamide]	–	92.6 % of control	–
COc1ccc(N(C)C(=O)n2cnc(-c3ccccc3)c2)cc1 [Compound 17, N-(4-methoxyphenyl)-N-methyl-4-phenyl-1H-imidazole-1-carboxamide]	–	65 % of control	–
Cl.O=C(N1CCN(Cc2ccccc2)CC1)n1nnc2ccccc21 [Compound 93, (1H-benzo[d][1,2,3]triazol-1-yl)(4-benzylpiperazin-1-yl)methanone hydrochloride]	0 % of control	–	–
O=C(N1CCC(Oc2ccccc2)CC1)n1nnc2ccccc21 [Compound 120, (1H-benzo[d][1,2,3]triazol-1-yl)(4-phenoxypiperidin-1-yl)methanone]	0.1 % of control	–	–
COc1cccc(-c2cn(C(=O)N(Cc3ccccc3)C(C)C)cn2)c1 [Compound 255, N-benzyl-N-isopropyl-4-(3-methoxyphenyl)-1H-imidazole-1-carboxamide]	96.7 % of control	–	–
CN(C(=O)n1cnc(-c2ccccc2)c1)C1CCCCC1 [Compound 103, N-cyclohexyl-N-methyl-4-phenyl-1H-imidazole-1-carboxamide]	37.5 % of control	0 % of control	–
O=C(N1CCOCC1)n1ccc2cc(F)ccc21 [Compound 46, (5-fluoro-1H-indol-1-yl)(morpholino)methanone]	104.3 % of control	–	–
N#Cc1ccc(Oc2ccc(-c3ncn(C(=O)N4CCOCC4)n3)cc2)cc1 [Compound 141, 4-(4-(1-(morpholine-4-carbonyl)-1H-1,2,4-triazol-3-yl)phenoxy)benzonitrile]	15.9 % of control	–	–
